From patent US10703764B2, “Benzopiperazine compositions as BET bromodomain inhibitors” (FORMA Therapeutics, Inc., priority 2013, dated 2020)

Key:
BRD4 BD1 = biological target: T1, BRD4 BD1 (Homo sapiens, UniProt O60885); experiment: AlphaScreen binding assay, BRD4 Bromodomain 1
T1 construct: made in house
Summary of the method: (§1)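 An AlphaScreen competition format was used with His-BRD4 BD1 or BD2 and biotin-H4 K5/8/12/16-acetyl peptide, each at matched final levels of 50 nM (BD1) or 100 nM (BD2). Incubation in HEPES/NaCl buffer with 0.1% BSA and 0.01% Triton X-100 ran ≥1 h before IC50 determination.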

BRD4 BD2 = biological target: T2, BRD4 BD2 (Homo sapiens, UniProt O60885); experiment: AlphaScreen binding assay, BRD4 Bromodomain 2
T2 construct: made in house
Summary of the method: as §1

MV4-11 cells = experiment: Oncology cell growth assay (3-day proliferation, CellTiter-Glo); type: cell-based; settings: Homo sapiens, MV4-11, 72 h, AML cell line MV4-11, 72 hours, compounds grouped by IC50 range, read-out: MV4-11 IC50 (inhibition of proliferation, gIC50)
Summary of the method: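 Luminescence from CellTiter-Glo served as the growth read-out after MV4-11 cells (3000/well) were cultured with compound for 72 hours. Final concentrations spanned 10 to 0.0045 μM in 3-fold steps. gIC50 values were derived by four-parameter logistic fitting relative to DMSO and cell-free controls.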

Row | IC50 (BRD4 BD1) | IC50 (BRD4 BD2) | IC50 (MV4-11 cells) | Structure (SMILES)
1 | 0.1 to 1 µM | 0.05 to 0.5 µM | 0.1 to 0.5 µM | CC(=O)N1c2ccc(-c3cnn(C4CC4)c3)cc2N(C(=O)Oc2ccc(F)cc2F)C[C@@H]1C [Example I-499]
2 | 0.1 to 1 µM | 0.05 to 0.5 µM | 0.1 to 0.5 µM | COc1cccc(OC(=O)N2C[C@H](C)N(C(C)=O)c3ccc(-c4cnn(C5CC5)c4)cc32)c1 [Example I-500]
3 | 0.1 to 1 µM | 0.05 to 0.5 µM | 0.1 to 0.5 µM | CC(=O)N1c2ccc(-c3cnn(C4CC4)c3)cc2N(C(=O)Oc2cccc(C#N)c2)C[C@@H]1C [Example I-501]
4 | 0.1 to 1 µM | 0.05 to 0.5 µM | 0.1 to 0.5 µM | CC(=O)N1c2ccc(-c3cnn(C4CC4)c3)cc2N(C(=O)Oc2cccc(F)c2)C[C@@H]1C [Example I-502]
5 | 0.1 to 1 µM | 0.05 to 0.5 µM | 0.1 to 0.5 µM | CC(=O)N1c2ccc(-c3cnn(C4CC4)c3)cc2N(C(=O)Oc2cc(F)ccc2F)C[C@@H]1C [Example I-503]
6 | 0.1 to 1 µM | 0.05 to 0.5 µM | 0.1 to 0.5 µM | CC(=O)N1c2ccc(-c3cnn(C4CC4)c3)cc2N(C(=O)Oc2ccc(C)cc2Cl)C[C@@H]1C [Example I-504]
7 | 0.1 to 1 µM | 0.05 to 0.5 µM | < 0.1 µM | COc1cc(C)ccc1OC(=O)N1C[C@H](C)N(C(C)=O)c2ccc(-c3cnn(C4CC4)c3)cc21 [Example I-506]
8 | 0.1 to 1 µM | 0.05 to 0.5 µM | 0.1 to 0.5 µM | COc1ccc(C)cc1OC(=O)N1C[C@H](C)N(C(C)=O)c2ccc(-c3cnn(C4CC4)c3)cc21 [Example I-508]
9 | 0.1 to 1 µM | 0.05 to 0.5 µM | 0.1 to 0.5 µM | CC(=O)N1c2ccc(-c3cnn(C4CC4)c3)cc2N(C(=O)Oc2ccccc2C)C[C@@H]1C [Example I-509]
10 | < 0.1 µM | < 0.05 µM | 0.1 to 0.5 µM | CC(=O)N1c2ccc(-c3cnn(C4CC4)c3)cc2N(C(=O)Oc2cccnc2)C[C@@H]1C [Example I-510]
11 | < 0.1 µM | < 0.05 µM | 0.1 to 0.5 µM | CC(=O)N1c2ccc(-c3cnn(C4CC4)c3)cc2N(C(=O)Oc2ccc(C)nc2)C[C@@H]1C [Example I-511]
12 | < 0.1 µM | < 0.05 µM | < 0.1 µM | CC(=O)N1c2ccc(-c3cnn(C4CC4)c3)cc2N(C(=O)Oc2ccc3ncccc3c2)C[C@@H]1C [Example I-512]
13 | 0.1 to 1 µM | 0.05 to 0.5 µM | < 0.1 µM | CC(=O)N1c2ccc(-c3cnn(C4CC4)c3)cc2N(C(=O)Oc2ccc3nc(C)ccc3c2)C[C@@H]1C [Example I-513]
14 | 0.1 to 1 µM | 0.05 to 0.5 µM | < 0.1 µM | CC(=O)N1c2ccc(-c3cnn(C4CC4)c3)cc2N(C(=O)Oc2cccc3ccc(C)nc23)C[C@@H]1C [Example I-515]
15 | 0.1 to 1 µM | 0.05 to 0.5 µM | < 0.1 µM | CC(=O)N1c2ccc(-c3cnn(C4CC4)c3)cc2N(C(=O)Oc2cccc(C)c2)C[C@@H]1C [Example I-517]
16 | 0.1 to 1 µM | 0.05 to 0.5 µM | 0.1 to 0.5 µM | CC(=O)N1c2ccc(-c3cnn(C4CC4)c3)cc2N(C(=O)Oc2cccc(Cl)c2)C[C@@H]1C [Example I-518]
17 | 0.1 to 1 µM | 0.05 to 0.5 µM | < 0.1 µM | CC(=O)N1c2ccc(-c3cnn(C4CC4)c3)cc2N(C(=O)Oc2ccccc2F)C[C@@H]1C [Example I-519]
18 | < 0.1 µM | < 0.05 µM | < 0.1 µM | COc1ncccc1OC(=O)N1C[C@H](C)N(C(C)=O)c2ccc(-c3cnn(C4CC4)c3)cc21 [Example I-521]
19 | 0.1 to 1 µM | 0.05 to 0.5 µM | < 0.1 µM | COc1c(OC(=O)N2C[C@H](C)N(C(C)=O)c3ccc(-c4cnn(C5CC5)c4)cc32)ccnc1C [Example I-522]
20 | 0.1 to 1 µM | 0.05 to 0.5 µM | < 0.1 µM | COc1ccc(OC(=O)N2C[C@H](C)N(C(C)=O)c3ccc(-c4cnn(C5CC5)c4)cc32)c(F)c1 [Example I-523]
21 | 0.1 to 1 µM | 0.05 to 0.5 µM | < 0.1 µM | COc1ccc(F)c(OC(=O)N2C[C@H](C)N(C(C)=O)c3ccc(-c4cnn(C5CC5)c4)cc32)c1 [Example I-524]
22 | 0.1 to 1 µM | 0.05 to 0.5 µM | 0.1 to 0.5 µM | COc1ccc(C#N)cc1OC(=O)N1C[C@H](C)N(C(C)=O)c2ccc(-c3cnn(C4CC4)c3)cc21 [Example I-526]
23 | 0.1 to 1 µM | 0.05 to 0.5 µM | < 0.1 µM | CC(=O)N1c2ccc(-c3cnn(C4CC4)c3)cc2N(C(=O)Oc2ccc3ncsc3c2)C[C@@H]1C [Example I-527]
24 | 0.1 to 1 µM | < 0.05 µM | < 0.1 µM | COc1cc(Cl)ccc1OC(=O)N1C[C@H](C)N(C(C)=O)c2ccc(-c3cnn(C4CC4)c3)cc21 [Example I-529]

Row | IC50 (BRD4 BD1) | IC50 (BRD4 BD2) | IC50 (MV4-11 cells) | Structure (SMILES)
25 | 0.1 to 1 µM | 0.05 to 0.5 µM | < 0.1 µM | COc1ccc(Cl)cc1OC(=O)N1C[C@H](C)N(C(C)=O)c2ccc(-c3cnn(C4CC4)c3)cc21 [Example I-530]
26 | 0.1 to 1 µM | 0.05 to 0.5 µM | 0.1 to 0.5 µM | CC(=O)N1c2ccc(-c3ccc(C(=O)N4CC[C@@H](N)C4)cc3)cc2N(C(=O)OC(C)C)C[C@@H]1C [Example I-532]
27 | 0.1 to 1 µM | 0.05 to 0.5 µM | < 0.1 µM | CC(=O)N1c2ccc(-c3ccc(C(=O)NCCN(C)C)cc3)cc2N(C(=O)OC(C)C)C[C@@H]1C [Example I-533]
28 | 0.1 to 1 µM | 0.05 to 0.5 µM | 0.1 to 0.5 µM | CC(=O)N1c2ccc(-c3ccc(C(=O)NCC(N)=O)cc3)cc2N(C(=O)OC(C)C)C[C@@H]1C [Example I-534]
29 | 0.1 to 1 µM | < 0.05 µM | 0.1 to 0.5 µM | CCN(CC)C(=O)c1ccc(-c2ccc3c(c2)N(C(=O)OC(C)C)C[C@H](C)N3C(C)=O)cc1 [Example I-536]
30 | 0.1 to 1 µM | 0.05 to 0.5 µM | 0.1 to 0.5 µM | CC(=O)N1c2ccc(-c3ccc(C(=O)N4CCCCC4)cc3)cc2N(C(=O)OC(C)C)C[C@@H]1C [Example I-537]
31 | 0.1 to 1 µM | 0.05 to 0.5 µM | 0.1 to 0.5 µM | CC(=O)N1c2ccc(-c3ccc(C(=O)N4CCSCC4)cc3)cc2N(C(=O)OC(C)C)C[C@@H]1C [Example I-538]
32 | 0.1 to 1 µM | 0.05 to 0.5 µM | 0.1 to 0.5 µM | CC(=O)N1c2ccc(-c3ccc(C(=O)N(C)CCN(C)C)cc3)cc2N(C(=O)OC(C)C)C[C@@H]1C [Example I-539]
33 | < 0.1 µM | < 0.05 µM | < 0.1 µM | CC(=O)N[C@@H]1CCN(C(=O)c2ccc(-c3ccc4c(c3)N(C(=O)OC(C)C)C[C@H](C)N4C(C)=O)cc2)C1 [Example I-540]
34 | 0.1 to 1 µM | 0.05 to 0.5 µM | 0.1 to 0.5 µM | CC(=O)N[C@H]1CCN(C(=O)c2ccc(-c3ccc4c(c3)N(C(=O)OC(C)C)C[C@H](C)N4C(C)=O)cc2)C1 [Example I-541]
35 | < 0.1 µM | < 0.05 µM | < 0.1 µM | CC(=O)N1c2ccc(-c3ccc(C(=O)N4CC[C@@H](N(C)C)C4)cc3)cc2N(C(=O)OC(C)C)C[C@@H]1C [Example I-542]
36 | < 0.1 µM | < 0.05 µM | < 0.1 µM | CC(=O)N1c2ccc(-c3ccc(C(=O)N4CC[C@H](N(C)C)C4)cc3)cc2N(C(=O)OC(C)C)C[C@@H]1C [Example I-543]
37 | 0.1 to 1 µM | 0.05 to 0.5 µM | 0.1 to 0.5 µM | CC(=O)N1c2ccc(-c3ccc(C(=O)N4CCN(C)CC4)cc3)cc2N(C(=O)OC(C)C)C[C@@H]1C [Example I-544]
38 | 0.1 to 1 µM | 0.05 to 0.5 µM | 0.1 to 0.5 µM | CC(=O)N1c2ccc(-c3ccc(C(=O)N4CCN(C=O)CC4)cc3)cc2N(C(=O)OC(C)C)C[C@@H]1C [Example I-545]
39 | 0.1 to 1 µM | 0.05 to 0.5 µM | 0.1 to 0.5 µM | COC(=O)N1CCN(C(=O)c2ccc(-c3ccc4c(c3)N(C(=O)OC(C)C)C[C@H](C)N4C(C)=O)cc2)CC1 [Example I-546]
40 | 0.1 to 1 µM | 0.05 to 0.5 µM | 0.1 to 0.5 µM | CC(=O)N1c2ccc(-c3ccc(C(=O)N4CCNC(=O)C4)cc3)cc2N(C(=O)OC(C)C)C[C@@H]1C [Example I-547]
41 | 0.1 to 1 µM | 0.05 to 0.5 µM | < 0.1 µM | CC(=O)N1CCN(C(=O)c2ccc(-c3ccc4c(c3)N(C(=O)OC(C)C)C[C@H](C)N4C(C)=O)cc2)CC1 [Example I-548]
42 | 0.1 to 1 µM | 0.05 to 0.5 µM | 0.1 to 0.5 µM | CC(=O)N1c2ccc(-c3ccc(C(=O)N4CCN(S(C)(=O)=O)CC4)cc3)cc2N(C(=O)OC(C)C)C[C@@H]1C [Example I-549]
43 | < 0.1 µM | 0.05 to 0.5 µM | 0.1 to 0.5 µM | CC(=O)N1c2ccc(-c3ccc(C(=O)N(C)CC(=O)N(C)C)cc3)cc2N(C(=O)OC(C)C)C[C@@H]1C [Example I-550]
44 | 0.1 to 1 µM | 0.05 to 0.5 µM | 0.1 to 0.5 µM | CC(=O)N1c2ccc(-c3ccc(C(=O)N(C)CCN4CCCC4)cc3)cc2N(C(=O)OC(C)C)C[C@@H]1C [Example I-551]
45 | 0.1 to 1 µM | 0.05 to 0.5 µM | 0.1 to 0.5 µM | CC(=O)N1c2ccc(-c3ccc(C(=O)N(C)c4ccccn4)cc3)cc2N(C(=O)OC(C)C)C[C@@H]1C [Example I-552]
46 | 0.1 to 1 µM | 0.05 to 0.5 µM | < 0.1 µM | CC(=O)N1c2ccc(-c3ccc(C(=O)N4CCCN(C)CC4)cc3)cc2N(C(=O)OC(C)C)C[C@@H]1C [Example I-553]
47 | < 0.1 µM | < 0.05 µM | 0.1 to 0.5 µM | CNC(=O)CN(C)C(=O)c1ccc(-c2ccc3c(c2)N(C(=O)OC(C)C)C[C@H](C)N3C(C)=O)cc1 [Example I-554]
48 | 0.1 to 1 µM | 0.05 to 0.5 µM | < 0.1 µM | CC(=O)N1c2ccc(-c3ccc(C(=O)N4C[C@H]5CCN(C)[C@H]5C4)cc3)cc2N(C(=O)OC(C)C)C[C@@H]1C [Example I-555]
